Assay results as given in US20100292278A1, “Methods of treating vascular disease and injury” (priority 2009, published 2010).

Experiments:
miR-29c = assay: qRT-PCR of miR-29 expression level in H9c2 cells; format: cell-based, rat
Experimental: (§1) The cardiac muscle cell H9c2 was maintained in complete growth medium, supplemented with 10% FBS, penicillin G (100 IU/ml). Cells were incubated at 37° C. in a humidified atmosphere (5% CO2/95% air). Passages 5-9 were used for all experiments. Exponentially growing H9c2 cells were seeded at 1×10^5 per 100 mm plate and incubated until 60-70% confluent. Cells were treated with: 1) vehicle alone (2% ethanol); 2) 10 nM PIO; 3) 1 μM GW9662; 4) 10 nM PIO+1 μM GW9662. PIO was dissolved in 70% ethanol. 24 hours later, cells were harvested and total RNA enriched with small RNAs was isolated using mirVana miRNA Isolation Kit (Ambion). MiR-29 levels were measured using the mirVana qRT-PCR miRNA Detection Kit (Ambion). Reactions containing mirVana qRT-PCR Primer Sets were specific for rat miR-29. The appropriate cycle threshold (Ct) was determined by using the automatic baseline determination feature. The expression of miR-29 between RNA samples was calculated. Data were normalized by evaluating U6 expression.

miR-29a = assay: qRT-PCR of miR-29 expression level in H9c2 cells; format: cell-based, rat
Experimental: as §1

[1] = 10 nM PIO + 1 μM GW9662, 24 hours
[2] = single agent, 24 hours, 10 nM PIO or 1 μM GW9662, vs vehicle control

## O=C(Nc1ccccc1)c1cc([N+](=O)[O-])ccc1Cl [GW9662]
miR-29c; [1]
  effect of PIO on miR-29c level in H9c2 cells (qRT-PCR): block the effect of PIO
miR-29c; [2]
  miR-29c level in H9c2 cells (qRT-PCR): no effect
miR-29a; [1]
  effect of PIO on miR-29a level in H9c2 cells (qRT-PCR): block the effect of PIO
miR-29a; [2]
  miR-29a level in H9c2 cells (qRT-PCR): no effect
